Entries after “also recorded” stand apart in the source; their conditions may differ.
Assays:
[1] = molecular target: T1, glucocorticoid receptor (Homo sapiens, UniProt P04150); assay: Glucocorticoid receptor transactivation, luciferase reporter in HeLa cells; assay type: cell-based
T1 construct: expressed in transfected cells
T1 sequence (P04150 1-777): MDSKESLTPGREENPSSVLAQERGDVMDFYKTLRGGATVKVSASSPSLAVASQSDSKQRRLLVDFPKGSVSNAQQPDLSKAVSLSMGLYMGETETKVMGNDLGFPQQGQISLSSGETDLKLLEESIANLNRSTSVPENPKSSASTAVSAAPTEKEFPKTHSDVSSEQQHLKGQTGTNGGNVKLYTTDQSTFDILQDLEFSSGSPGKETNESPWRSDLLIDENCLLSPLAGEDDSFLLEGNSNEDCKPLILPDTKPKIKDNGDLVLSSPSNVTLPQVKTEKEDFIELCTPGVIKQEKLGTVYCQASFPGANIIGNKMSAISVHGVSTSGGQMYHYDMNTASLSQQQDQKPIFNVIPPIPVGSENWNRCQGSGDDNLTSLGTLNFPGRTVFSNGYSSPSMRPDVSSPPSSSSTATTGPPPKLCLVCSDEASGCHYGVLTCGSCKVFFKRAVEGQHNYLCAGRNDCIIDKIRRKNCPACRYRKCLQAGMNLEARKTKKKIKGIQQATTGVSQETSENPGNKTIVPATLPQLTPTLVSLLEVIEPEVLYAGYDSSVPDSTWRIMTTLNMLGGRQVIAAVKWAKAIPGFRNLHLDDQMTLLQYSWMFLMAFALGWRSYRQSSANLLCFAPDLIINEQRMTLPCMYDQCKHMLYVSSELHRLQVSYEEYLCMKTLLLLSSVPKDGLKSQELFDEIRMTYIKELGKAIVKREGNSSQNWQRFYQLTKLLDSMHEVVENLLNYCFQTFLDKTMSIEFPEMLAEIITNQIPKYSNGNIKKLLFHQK
Protocol: (§1) Thus, HeLa cells were cotransfected with an androgen receptor (AR) expression plasmid, a plasmid for expression of β-galactosidase (β-gal) and a luciferase reporter plasmid, ARE-Tata-luc (Jenster 1997) and then incubated with ethanol as a solvent control, or with the herbal extracts indicated in Table 1. Herbal extracts were added to the cells six hours after transfection. Thirty-six hours later, the cells were harvested and cell extracts assayed for luciferase activity.
(§2) The DNA mix contained an AR expression vector, a reporter gene vector (ARE-Tata-Luc) and a βGal vectors, the last for purposes of normalizing results for the transfection efficiency. The AR expression vector comprises a cDNA encoding AR and expressed from a SV40 promoter and a rabbit β-globin polyadenylation signal, all cloned in a pBR328 vector. The β-gal vector comprises a bacterial lacZ gene under control of an SV40 promoter-enhancer. The DNA mix was preincubated for 45 min at room temperature with lipofectamine (Promega, Madison, Wis.) in a 400 μl serum-free medium. […] Cell lysates (100 μl) were added to 20 μl of luciferase substrate and luciferase activity measured with a luminometer. Transfection efficiency was assessed by βGal activity and luciferase activity normalized to the protein content of the cell lysates. Total protein in the supernatant was quantified with bovine serum albumin as the standard.

[2] = molecular target: T2, androgen receptor (Homo sapiens, UniProt P10275); details: 0.3 to 10 nM; 3 nM tritiated testosterone
T2 sequence (P10275 1-920): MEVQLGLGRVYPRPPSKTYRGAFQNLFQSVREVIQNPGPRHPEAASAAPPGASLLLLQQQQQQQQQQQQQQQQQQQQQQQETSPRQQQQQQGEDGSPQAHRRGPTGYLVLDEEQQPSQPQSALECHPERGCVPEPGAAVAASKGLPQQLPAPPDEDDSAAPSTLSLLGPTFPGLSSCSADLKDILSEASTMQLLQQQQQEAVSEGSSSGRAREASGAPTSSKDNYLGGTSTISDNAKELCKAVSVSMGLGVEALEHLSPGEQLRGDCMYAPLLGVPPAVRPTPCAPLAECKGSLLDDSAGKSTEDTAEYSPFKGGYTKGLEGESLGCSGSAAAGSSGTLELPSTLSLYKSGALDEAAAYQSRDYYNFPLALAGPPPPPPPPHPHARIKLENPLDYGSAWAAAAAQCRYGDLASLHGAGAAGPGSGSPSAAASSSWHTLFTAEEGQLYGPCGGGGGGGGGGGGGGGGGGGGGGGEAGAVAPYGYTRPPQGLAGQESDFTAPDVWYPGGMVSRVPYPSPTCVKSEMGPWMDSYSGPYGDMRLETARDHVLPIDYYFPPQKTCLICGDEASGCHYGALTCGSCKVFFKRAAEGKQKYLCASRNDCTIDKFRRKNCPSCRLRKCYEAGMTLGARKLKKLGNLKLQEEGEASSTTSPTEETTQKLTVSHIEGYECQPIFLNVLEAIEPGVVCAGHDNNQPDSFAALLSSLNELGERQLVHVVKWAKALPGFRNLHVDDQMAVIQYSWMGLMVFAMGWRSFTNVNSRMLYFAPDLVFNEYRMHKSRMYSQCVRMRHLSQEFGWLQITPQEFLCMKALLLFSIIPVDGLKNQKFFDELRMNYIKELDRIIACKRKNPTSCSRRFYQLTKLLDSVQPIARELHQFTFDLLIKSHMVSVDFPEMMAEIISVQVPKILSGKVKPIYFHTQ

[3] = molecular target: T3, progesterone receptor (Homo sapiens, UniProt P06401); assay: Progesterone receptor transactivation, luciferase reporter in HeLa cells
T3 sequence (P06401 1-933): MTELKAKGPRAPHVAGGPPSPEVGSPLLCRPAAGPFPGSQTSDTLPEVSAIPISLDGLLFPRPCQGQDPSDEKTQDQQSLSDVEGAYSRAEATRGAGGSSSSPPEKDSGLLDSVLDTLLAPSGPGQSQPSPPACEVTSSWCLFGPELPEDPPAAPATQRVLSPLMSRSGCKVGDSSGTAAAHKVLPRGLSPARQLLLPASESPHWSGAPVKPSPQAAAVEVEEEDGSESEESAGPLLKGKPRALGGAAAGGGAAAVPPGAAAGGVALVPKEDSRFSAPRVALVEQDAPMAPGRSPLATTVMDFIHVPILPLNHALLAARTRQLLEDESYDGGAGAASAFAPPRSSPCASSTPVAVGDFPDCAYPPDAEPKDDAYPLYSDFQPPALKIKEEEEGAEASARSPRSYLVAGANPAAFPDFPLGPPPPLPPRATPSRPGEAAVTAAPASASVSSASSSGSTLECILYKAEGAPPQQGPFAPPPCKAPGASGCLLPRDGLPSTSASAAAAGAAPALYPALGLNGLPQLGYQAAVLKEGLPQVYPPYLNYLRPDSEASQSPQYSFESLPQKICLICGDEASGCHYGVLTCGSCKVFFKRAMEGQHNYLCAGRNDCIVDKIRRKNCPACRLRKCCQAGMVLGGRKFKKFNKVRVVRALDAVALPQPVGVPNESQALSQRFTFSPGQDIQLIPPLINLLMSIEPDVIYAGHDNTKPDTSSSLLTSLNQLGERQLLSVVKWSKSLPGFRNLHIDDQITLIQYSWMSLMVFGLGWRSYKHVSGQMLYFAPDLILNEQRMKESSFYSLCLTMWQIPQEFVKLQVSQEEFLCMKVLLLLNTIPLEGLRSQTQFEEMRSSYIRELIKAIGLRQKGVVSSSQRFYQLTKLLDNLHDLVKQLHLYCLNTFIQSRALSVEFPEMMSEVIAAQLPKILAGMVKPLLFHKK
Protocol: as §1, §2

[4] = test system: ventral prostate gland, immature Wistar rats; assay: Growth of the ventral prostate gland in immature Wistar rats; assay type: in vivo, rat; details: testosterone intramuscularly, alone (FIG. 6a)
Protocol: The growth of the ventral prostate gland, an androgen-dependent tissue, in immature Wistar rats was measured.
To determine the androgenic effect of an ethanolic EU extract in animals, the growth of the ventral prostate gland, an androgen-dependent tissue, in immature Wistar rats was measured. […] In this model, exogenous androgen administration can be directly correlated with the growth of the ventral prostate.

C[C@]12CCC(=O)C=C1CC[C@@H]1[C@@H]2[C@@H](O)C[C@@]2(C)[C@H]1CC[C@]2(O)C(=O)CO [Cortisol, cortisol]
Ratio of Luc activity as percentage (%) of 1 nM ligand ([1]; substance alone): 100%
Luc activity (fold induction) ([1]; substance alone (extract, or 1 nM cortisol)): 194 fold
displacement of tritiated testosterone [2]: does not displace tritiated testosterone

CC(=O)[C@H]1CC[C@H]2[C@@H]3CCC4=CC(=O)CC[C@]4(C)[C@H]3CC[C@]12C [Progesterone, progesterone]
Ratio of Luc activity as percentage (%) of 1 nM ligand ([3]; substance alone): 100%
Luc activity (fold induction) ([3]; substance alone (extract, or 1 nM progesterone)): 67 fold

C[C@]12CC[C@H]3[C@@H](CCC4=CC(=O)CC[C@@]43C)[C@@H]1CC[C@@H]2O [testosterone]
prostate weight (per unit body weight) [4]: dose-dependent increase in prostate weight; also recorded: dose-dependent increments in prostatic weight
